Assay results reported in US20030129189A1, “Tumor necrosis factor-gamma” (priority 1994, published 2003).

T1: DcR2 on transiently transfected cells (UniProt Q9UBN6 56-386, limits assumed)
T1 construct: whole, on cells
T1 sequence (looked up): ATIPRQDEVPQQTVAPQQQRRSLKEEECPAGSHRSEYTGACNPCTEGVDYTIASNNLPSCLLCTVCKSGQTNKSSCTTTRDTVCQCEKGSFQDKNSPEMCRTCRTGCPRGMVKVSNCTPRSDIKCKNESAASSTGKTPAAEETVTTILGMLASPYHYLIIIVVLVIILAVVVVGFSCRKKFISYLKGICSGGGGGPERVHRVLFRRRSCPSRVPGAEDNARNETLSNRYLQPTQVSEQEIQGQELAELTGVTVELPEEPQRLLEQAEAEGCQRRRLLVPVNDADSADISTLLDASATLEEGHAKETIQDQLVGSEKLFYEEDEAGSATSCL

B1: FLAG-tagged soluble TNF-gamma-beta (aa 72-251) (ligand)
chain: LKGQEFAPSHQQVYAPLRADGDKPRAHLTVVRQTPTQHFKNQFPALHWEHELGLAFTKNRMNYTNKFLLIPESGDYFIYSQVTFRGMTSECSEIRQAGRPNKPDSITVVITKVTDSYPEPTQLLMGTKSVCEVGSNWFQPIYLGAMFSLQEGDKLMVNVSDISLVDYTKEDKTFFGAFLL
notes: also called FLAG-TL1β; FLAG-TNF-gamma-beta; not shown: The N-terminal FLAG tag (pFLAG-CMV-1 vector) and any vector linker

Experiments:
293 = assay: TNF-gamma activity on 293 cells; format: cell-based; design: key: The numbers of “+” indicate the relative level of activities.; ++: The numbers of “+” indicate the relative level of activities.; +++: The numbers of “+” indicate the relative level of activities.; “−” indicates no detected activity at the concentration range tested; details: 293, human embryonal kidney
[1] = test system: adult bovine aortic endothelial cells; assay: Endothelial cell apoptosis; format: cell-based
[2] = test system: bFGF-induced corneal neovascularization; assay: Corneal angiogenic assay; format: in vivo, rat
Source text: Basic FGF (“bFGF”) has been tested in this corneal angiogenic assay in various research laboratories for a variety of purposes. It has been shown that bFGF can induce significant angiogenesis in corneas (e.g., in rabbits, rats and mice). Based on the previous studies, bFGF was used in our study of TNF-gamma as an angiogenic factor to induce the growth of blood vessels in rat corneas.
An incision, 1-1.5 mm in length, is made in the center of the cornea with a microsurgery scalpel blade.
Starting at the incision, a micropocket is created between the collagenous layers of the corneal stroma with a Castroviego cyclodialysis spatula. This pocket extends to a point 1-2 mm from the capillary bed at the corneal-scleral limbus.
bFGF, which is incorporated 1:1 into non-inflammatory Hydron polymer (available from Interferon Sciences, New Brunswick, N.J.), is implanted into the pocket.
Five or seven days after corneal implantation, corneal blood perfusion with colloidal carbon is performed. Corneas are then harvested, fixed, flattened, mounted and photographed for morphology.
An image analysis system (IPLab) is used to quantify the corneal angiogenesis. The corneal surface area, which is covered by the new blood vessels, is quantified and used in our current study. After corneal implantation surgery, TNF-gamma, angiostatin or PBS in a volume of 25 microliters was injected into the conjunctival region adjacent to the implantation site. Based on molarities of TNF-gamma and angiostatin, 10 micrograms of TNF-gamma or 5 micrograms of angiostatin were given respectively four times, once a day, during the first four days post-surgery. TNF-gamma and angiostatin were prepared in PBS.
bFGF was used to induce neovascularization of the cornea from preexisting pericorneal limbal vessels in two different versions of the assay. First, corneas were surgically implanted with hydrogel plugs containing bFGF. […] In a separate study using an alternate version of this assay, both bFGF and treatment protein were co-administered on a nitrocellulose filter disk implanted within the rat corneal stroma. […] In both assays, the surface area of the angiogenic response was quantitated from digital images of treated corneas five days following implantation.

NRK-54E = assay: TNF-gamma activity on NRK-54E cells; format: cell-based; design: key: The numbers of “+” indicate the relative level of activities.; ++: The numbers of “+” indicate the relative level of activities.; +++: The numbers of “+” indicate the relative level of activities.; “−” indicates no detected activity at the concentration range tested; details: rat kidney epithelial-like
L929 = assay: TNF-gamma activity on L929 cells (MTS cytotoxicity/proliferation, morphology); format: cell-based, mouse; design: key to Proliferation / Differentiation / Adhesion: The numbers of “+” indicate the relative level of activities.; ++: The numbers of “+” indicate the relative level of activities.; +++: The numbers of “+” indicate the relative level of activities.; “−” indicates no detected activity at the concentration range tested
Protocol: The adherent target cells were prepared from confluent cultures by trypsinization in PBS, and non-adherent target cells were harvested from stationary cultures and washed once with medium. Target cells were suspended at 3×10^5 cells/ml in medium containing 10% FCS. 0.1 ml aliquots were dispensed into 96-well flat-bottomed microtiter plates containing 0.1 ml serially diluted test samples of cells (WEHI 164 and L929). Incubation was continued for 70 hours. TNF-alpha, TNF-beta and bacterially-produced TNF-gamma were added at a 0.5 μg/ml concentration. The cytotoxicity and proliferation activity was quantified using an MTS assay performed by the addition of 20 μl of MTS and phenazine methosulfate (PMS) solution to each well. After a three hour incubation, the OD at 492 nm was measured by an ELISA plate reader. The OD492 is proportional to the number of viable cells in the wells. The percent of cytotoxicity was calculated as follows: […]. The photographs were taken after 72 hours.
In the graph of FIG. 7B, the assay was performed as described above, however, increasing amounts of TNF-alpha, TNF-beta and TNF-gamma were added to the cultures.

[3] = molecular target: T1, DcR2 on transiently transfected cells; assay: flow cytometry on transiently transfected cells
Protocol: One million cells, in 0.1 ml of FACS buffer (PBS, 0.1% BSA, 0.1% NaN₃), were incubated with 0.1-1 microgram of protein or antibody at RT for 15 min. The cells were washed with 3 ml of FACS buffer, reacted with biotinylated primary antibody, and stained with PE-conjugated secondary antibody at RT for 15 min. Cells were then washed again, resuspended in 0.5 microgram/ml of propidium iodide, and live cells were gated and analyzed on a FACScan using the CellQuest software (BD Biosciences).

Row | Molecule | Adhesion 293 | Differentiation 293 | Proliferation 293 | apoptosis [1] | angiogenic process in bFGF-implanted corneas ([2]; bFGF (300 ng) implant, conjunctival injection once a day for four days, 10 micrograms TNF-gamma or 5 micrograms angiostatin, seven days after surgery, vs PBS) | vessel growth in PBS-implanted corneas ([2]; multiple conjunctival injections) | Adhesion (NRK-54E) | Differentiation (NRK-54E) | Proliferation (NRK-54E) | morphology change (killed cells) (L929; L929, 0.5 μg/ml, photographs after 72 hours (FIG. 8)) | Adhesion (L929; L929, mouse fibroblast) | Differentiation (L929; L929, mouse fibroblast) | Proliferation (L929; L929, mouse fibroblast) | inhibition of L929 cell growth (L929; MTS assay, increasing amounts added) | binding result [3]
1 | TNF-gamma: new member of the tumor necrosis factor family; the term refers to TNF-gamma-alpha and/or TNF-gamma-beta | −− | −− | ++ | induces apoptosis | significantly slowed down the angiogenic process | no obvious vessel growth | −− | −− | − | induced a morphology change which appeared as dark round cells (indicating killed cells) | −− | −− | − | but not of the fibroblast cell line L929 | 
2 | B1 |  |  |  |  |  |  |  |  |  |  |  |  |  |  | no binding
